According to ChEMBL document CHEMBL1201862, “PubChem BioAssay data set” (2004):
Activity calls are given as the source filed them.

Assays:
[1] = biological target: Mitogen-activated protein kinase 10 (Homo sapiens, UniProt P53779); assay: Dose response biochemical screening assay for inhibitors of c-Jun N-Terminal Kinase 3 (JNK3). [Related pubchem assays: 746 ]
[2] = IC50 of Artemis nuclease activity blockers – biochemical, fluorescence intensity, dose response (AID 720701); format: functional;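 further: Artemis endonuclease enzyme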
[3] = biological target: Heat shock protein HSP 90-alpha (Homo sapiens, UniProt P07900); assay: Luminescence-based dose response biochemical high throughput screening assay for inhibitors of the Heat Shock Protein 90 (HSP90). [Related pubchem assays: 1831 (Summary AID.), 1846 (Confirmation screen.), 1789 (Primary screen.)]
[4] = biological target: T1, Luciferin 4-monooxygenase (Photuris pensylvanica, UniProt Q27757); assay: inhibition of Cell Titer Glo luciferase signal – biochemical, luminescence, cherry-picks, counter-screen for HSF-1 reporter inhibitor project, dose response (AID 588847)
T1 sequence (Q27757 whole entry): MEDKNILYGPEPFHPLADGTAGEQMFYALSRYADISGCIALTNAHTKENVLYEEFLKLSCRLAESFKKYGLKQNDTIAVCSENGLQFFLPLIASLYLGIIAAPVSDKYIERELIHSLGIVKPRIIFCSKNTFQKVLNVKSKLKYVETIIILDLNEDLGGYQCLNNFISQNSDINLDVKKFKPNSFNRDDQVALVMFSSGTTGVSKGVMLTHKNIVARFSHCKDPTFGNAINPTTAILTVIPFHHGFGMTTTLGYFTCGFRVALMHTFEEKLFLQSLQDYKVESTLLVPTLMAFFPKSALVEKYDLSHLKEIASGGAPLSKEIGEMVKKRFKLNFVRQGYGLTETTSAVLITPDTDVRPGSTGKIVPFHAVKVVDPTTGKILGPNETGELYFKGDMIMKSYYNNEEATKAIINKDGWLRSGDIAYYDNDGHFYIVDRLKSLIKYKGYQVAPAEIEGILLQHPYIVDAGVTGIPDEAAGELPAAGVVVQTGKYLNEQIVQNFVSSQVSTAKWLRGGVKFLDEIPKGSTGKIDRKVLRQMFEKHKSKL

[5] = biological target: T2, Induced myeloid leukemia cell differentiation protein Mcl-1 (Homo sapiens, UniProt Q07820); assay: blockers of MCL1 binding to BIM peptide – biochemical, fluorescence polarization, BIM-BH3 peptide, 1536-well, dose response (AID 2217)
T2 sequence (Q07820 whole entry): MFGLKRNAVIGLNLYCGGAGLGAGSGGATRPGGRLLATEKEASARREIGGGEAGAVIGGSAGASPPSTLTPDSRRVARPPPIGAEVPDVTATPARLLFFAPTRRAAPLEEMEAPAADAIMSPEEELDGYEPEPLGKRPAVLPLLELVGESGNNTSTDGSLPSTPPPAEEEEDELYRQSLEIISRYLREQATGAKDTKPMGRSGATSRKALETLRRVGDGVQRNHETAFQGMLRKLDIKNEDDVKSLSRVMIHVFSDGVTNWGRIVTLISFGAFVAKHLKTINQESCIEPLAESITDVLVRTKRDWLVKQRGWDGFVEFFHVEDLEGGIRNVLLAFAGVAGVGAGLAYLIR

Bcl-2-like protein 1 = Bcl-2-like protein 1 (Homo sapiens, UniProt Q07817); assay: blockers of BCLXL peptide binding – biochemical, fluorescence polarization, 1536-well, selectivity assay for MCL1 inhibitor project, dose response (AID 2218)
Sequence of Bcl-2-like protein 1 (Q07817 whole entry): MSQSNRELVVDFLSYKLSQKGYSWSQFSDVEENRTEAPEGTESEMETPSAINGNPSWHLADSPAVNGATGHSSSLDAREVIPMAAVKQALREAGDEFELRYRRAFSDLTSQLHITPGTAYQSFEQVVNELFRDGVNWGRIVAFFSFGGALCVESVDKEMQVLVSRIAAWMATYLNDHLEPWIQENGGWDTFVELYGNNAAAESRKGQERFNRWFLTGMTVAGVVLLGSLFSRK

[6] = biological target: T2, Induced myeloid leukemia cell differentiation protein Mcl-1; format: functional
NADPH oxidase 1 = NADPH oxidase 1 (Homo sapiens, UniProt Q9Y5S8); assay: Late-stage luminescence-based cell-based dose response assay to identify inhibitors of NADPH oxidase 1 (NOX1): Synthesized analogs 2.; format: functional
Sequence of NADPH oxidase 1 (Q9Y5S8 whole entry): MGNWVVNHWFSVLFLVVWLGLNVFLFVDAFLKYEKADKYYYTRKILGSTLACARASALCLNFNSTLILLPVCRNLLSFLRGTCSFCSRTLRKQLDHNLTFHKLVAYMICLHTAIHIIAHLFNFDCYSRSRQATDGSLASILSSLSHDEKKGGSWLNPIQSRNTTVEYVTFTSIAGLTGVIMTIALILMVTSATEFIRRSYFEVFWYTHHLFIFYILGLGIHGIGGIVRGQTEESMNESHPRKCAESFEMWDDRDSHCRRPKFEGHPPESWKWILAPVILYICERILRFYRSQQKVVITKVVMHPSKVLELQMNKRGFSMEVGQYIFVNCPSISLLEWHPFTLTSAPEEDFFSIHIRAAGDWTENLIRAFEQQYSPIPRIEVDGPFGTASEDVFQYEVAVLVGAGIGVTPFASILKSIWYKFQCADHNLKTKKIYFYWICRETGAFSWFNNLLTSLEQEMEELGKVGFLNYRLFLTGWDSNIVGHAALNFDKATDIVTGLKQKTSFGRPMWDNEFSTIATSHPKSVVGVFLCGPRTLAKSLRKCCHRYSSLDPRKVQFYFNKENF

[7] = biological target: Aryl hydrocarbon receptor (Homo sapiens, UniProt P35869); assay: Luminescence-based cell-based high throughput dose response assay for activators of the Aryl Hydrocarbon Receptor (AHR). [Related pubchem assays: 2796 (Primary screen (AHR activators in singlicate)), 2845 (Confirmation screen (AHR activators in triplicate)), 434939 (Counterscreen (PXR activators in triplicate)), 2804 (Summary (AHR activators))]; format: ADME
Sequence of Aryl hydrocarbon receptor (P35869 whole entry): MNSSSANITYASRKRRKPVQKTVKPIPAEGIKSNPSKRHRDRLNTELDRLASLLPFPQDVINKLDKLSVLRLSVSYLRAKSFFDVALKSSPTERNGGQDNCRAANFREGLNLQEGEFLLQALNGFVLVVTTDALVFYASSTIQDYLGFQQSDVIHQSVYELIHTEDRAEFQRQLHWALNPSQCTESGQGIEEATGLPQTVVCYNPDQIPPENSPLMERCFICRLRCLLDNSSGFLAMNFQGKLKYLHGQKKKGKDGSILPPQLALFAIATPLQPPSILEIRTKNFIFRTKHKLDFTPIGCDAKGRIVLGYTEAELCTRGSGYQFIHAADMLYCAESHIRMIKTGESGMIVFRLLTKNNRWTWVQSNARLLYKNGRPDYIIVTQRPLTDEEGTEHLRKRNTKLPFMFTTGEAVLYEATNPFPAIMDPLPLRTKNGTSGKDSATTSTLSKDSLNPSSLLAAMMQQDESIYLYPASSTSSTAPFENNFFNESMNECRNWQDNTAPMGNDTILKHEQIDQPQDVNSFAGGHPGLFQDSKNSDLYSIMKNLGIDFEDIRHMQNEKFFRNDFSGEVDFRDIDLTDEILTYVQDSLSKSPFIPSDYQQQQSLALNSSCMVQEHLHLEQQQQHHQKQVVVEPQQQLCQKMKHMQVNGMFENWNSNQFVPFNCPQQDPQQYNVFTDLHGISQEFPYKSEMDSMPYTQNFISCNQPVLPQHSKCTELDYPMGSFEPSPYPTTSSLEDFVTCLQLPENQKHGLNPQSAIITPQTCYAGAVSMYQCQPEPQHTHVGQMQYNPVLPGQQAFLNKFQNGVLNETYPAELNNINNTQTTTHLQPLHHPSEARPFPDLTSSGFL

[8] = biological target: Neuropeptides B/W receptor type 1 (Homo sapiens, UniProt P48145); assay: Fluorescence-based dose response cell-based high throughput screening assay to identify antagonists of the G-protein coupled receptor 7 (GPR7). [Related pubchem assays: 1952 (Screening assay (GPR7 antagonists).), 1880 (Summary AID.)]; format: functional
Sequence of Neuropeptides B/W receptor type 1 (P48145 whole entry): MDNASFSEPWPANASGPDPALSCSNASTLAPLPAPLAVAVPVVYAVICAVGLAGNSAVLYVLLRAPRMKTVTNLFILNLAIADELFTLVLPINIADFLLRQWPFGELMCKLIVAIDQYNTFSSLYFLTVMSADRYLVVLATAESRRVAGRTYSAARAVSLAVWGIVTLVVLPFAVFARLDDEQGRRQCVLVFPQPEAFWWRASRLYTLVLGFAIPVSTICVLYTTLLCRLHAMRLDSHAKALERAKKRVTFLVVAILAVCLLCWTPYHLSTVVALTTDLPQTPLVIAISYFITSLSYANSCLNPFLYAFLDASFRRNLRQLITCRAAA

[9] = biological target: Melanin-concentrating hormone receptor 1 (Homo sapiens, UniProt Q99705); assay: Fluorescence-based counterscreen for antagonists of the G-protein coupled receptor 7 (GPR7): cell-based high throughput dose response assay to identify antagonists of the melanin-concentrating hormone receptor 1 (MCHR1).; format: functional
Sequence of Melanin-concentrating hormone receptor 1 (Q99705 whole entry): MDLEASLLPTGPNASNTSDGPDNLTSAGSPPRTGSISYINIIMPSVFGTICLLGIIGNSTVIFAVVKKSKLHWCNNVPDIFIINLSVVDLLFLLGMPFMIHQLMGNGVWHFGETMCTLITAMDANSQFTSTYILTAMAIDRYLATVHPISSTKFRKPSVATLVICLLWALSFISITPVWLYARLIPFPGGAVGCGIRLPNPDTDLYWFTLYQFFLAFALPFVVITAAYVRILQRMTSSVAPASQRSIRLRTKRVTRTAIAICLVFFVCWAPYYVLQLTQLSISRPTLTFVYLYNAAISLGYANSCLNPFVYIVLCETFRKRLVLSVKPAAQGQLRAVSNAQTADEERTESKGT

[10] = viability loss in Vero cells – cytotoxicity control for Vif-APOBEC3G degradation inhibitor project, dose response (AID 1117358); format: functional; details: Vero

Sequence of Mitogen-activated protein kinase 10 (P53779 whole entry): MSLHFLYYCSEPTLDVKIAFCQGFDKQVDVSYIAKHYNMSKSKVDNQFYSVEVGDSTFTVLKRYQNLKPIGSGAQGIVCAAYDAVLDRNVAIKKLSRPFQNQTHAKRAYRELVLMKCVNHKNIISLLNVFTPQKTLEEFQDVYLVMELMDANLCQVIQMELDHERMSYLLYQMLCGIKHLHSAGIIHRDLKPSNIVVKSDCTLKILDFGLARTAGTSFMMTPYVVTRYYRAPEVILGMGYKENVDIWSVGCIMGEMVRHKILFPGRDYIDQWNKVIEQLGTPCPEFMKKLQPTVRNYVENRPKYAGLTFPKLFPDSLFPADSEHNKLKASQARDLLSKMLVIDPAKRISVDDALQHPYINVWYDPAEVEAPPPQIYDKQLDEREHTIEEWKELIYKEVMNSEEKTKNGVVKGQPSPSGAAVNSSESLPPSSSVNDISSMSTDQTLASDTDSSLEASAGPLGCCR

Cc1c(-c2nc(N)nc(Nc3ccccc3)n2)oc2ccccc12
IC50 [1]: > 93.1 µM (not active)
IC50 [2]: 7.66 µM (active)

Cc1c(-c2nc(-c3ccc(C(C)(C)C)cc3)no2)n(C)oc1=O
IC50 [3]: > 0.003 µM (active)
AC50 [4]: > 52 µM (inactive)

O=c1c2c3c(sc2[nH]c(=S)n1Cc1ccco1)CCC3
IC50 [5]: 77.8 µM (not active)
IC50 (Bcl-2-like protein 1): > 109 µM (not active)
IC50 [6]: 2.1 µM (active)

CN1c2ccccc2Sc2cc(NC(=O)c3ccc(N=[N+]=[N-])cc3)ccc21
IC50 (NADPH oxidase 1): 17.7 µM (active)

Nc1cccc(Nc2ncnc3ccccc23)c1
EC50 [7]: 3.58 µM (active)

O=C(NC1CCCC1)C(c1ccccc1)N(Cc1ccco1)C(=O)Cc1cccs1 (configuration not stated)
IC50 [8]: > 43.8 µM (not active)
IC50 [9]: 4.76 µM (active)

O=C(c1ccco1)c1cn(Cc2ccccc2)c2ccccc12
CC50 [10]: > 40 µM (active)
